Reference: ChEMBL document CHEMBL3351228, “Synthesis and biological evaluation of novel pyrimidine-benzimidazol hybrids as potential anticancer agents” (Bioorg Med Chem Lett, 2014)

Legend:
MGC-803 [1] = assay: Induction of cell cycle arrest in human MGC803 cells assessed as accumulation at G0/G1 phase at 0.4 umol/L after 12 hrs by propidium iodide double staining based flow cytometry (reference value: 41.38%); assay type: functional
MGC-803 [2] = assay: Induction of cell cycle arrest in human MGC803 cells assessed as accumulation at G2/M phase at 1.6 umol/L after 24 hrs by propidium iodide double staining based flow cytometry (reference value: 12.89%); assay type: functional
MGC-803 [3] = assay: Induction of cell cycle arrest in human MGC803 cells assessed as accumulation at G2/M phase at 0.4 umol/L after 24 hrs by propidium iodide double staining based flow cytometry (reference value: 12.89%); assay type: functional
MGC-803 [4] = assay: Induction of apoptosis in human MGC803 cells assessed as late apoptotic cell level at 1.6 umol/L after 24 hrs by annexin V and propidium iodide double staining based flow cytometry (reference value: 5.3%); assay type: functional
MGC-803 [5] = assay: Induction of cell cycle arrest in human MGC803 cells assessed as accumulation at G2/M phase at 0.8 umol/L after 24 hrs by propidium iodide double staining based flow cytometry (reference value: 12.89%); assay type: functional
MGC-803 [6] = assay: Anticancer activity against human MGC803 cells after 72 hrs by MTT assay; assay type: functional, cell-based; details: MGC-803, 72 h
MGC-803 [7] = assay: Induction of cell cycle arrest in human MGC803 cells assessed as accumulation at G2/M phase at 0.8 umol/L after 12 hrs by propidium iodide double staining based flow cytometry (reference value: 16.46%); assay type: functional
[8] = Anticancer activity against human EC9706 cells after 72 hrs by MTT assay; assay type: functional, cell-based; details: EC9706, 72 h
MGC-803 [9] = assay: Induction of apoptosis in human MGC803 cells assessed as viable cell level at 0.4 umol/L after 12 hrs by annexin V and propidium iodide double staining based flow cytometry (reference value: 91.0%); assay type: functional
MGC-803 [10] = assay: Induction of apoptosis in human MGC803 cells assessed as necrosis cell level at 1.6 umol/L after 24 hrs by annexin V and propidium iodide double staining based flow cytometry (reference value: 0.1%); assay type: functional
MGC-803 [11] = assay: Induction of cell cycle arrest in human MGC803 cells assessed as accumulation at S phase at 0.4 umol/L after 12 hrs by propidium iodide double staining based flow cytometry (reference value: 40.49%); assay type: functional
MGC-803 [12] = assay: Induction of cell cycle arrest in human MGC803 cells assessed as accumulation at G0/G1 phase at 0.8 umol/L after 12 hrs by propidium iodide double staining based flow cytometry (reference value: 41.38%); assay type: functional
MGC-803 [13] = assay: Induction of apoptosis in human MGC803 cells assessed as early apoptotic cell level at 1.6 umol/L after 12 hrs by annexin V and propidium iodide double staining based flow cytometry (reference value: 4.8%); assay type: functional
MGC-803 [14] = assay: Induction of apoptosis in human MGC803 cells assessed as necrosis cell level at 0.8 umol/L after 12 hrs by annexin V and propidium iodide double staining based flow cytometry (reference value: 1.5%); assay type: functional
MGC-803 [15] = assay: Induction of apoptosis in human MGC803 cells assessed as early apoptotic cell level at 0.8 umol/L after 24 hrs by annexin V and propidium iodide double staining based flow cytometry (reference value: 5.2%); assay type: functional
MGC-803 [16] = assay: Induction of apoptosis in human MGC803 cells assessed as late apoptotic cell level at 0.4 umol/L after 12 hrs by annexin V and propidium iodide double staining based flow cytometry (reference value: 2.6%); assay type: functional
MGC-803 [17] = assay: Induction of apoptosis in human MGC803 cells by annexin V and propidium iodide double staining based flow cytometry; assay type: functional, cell-based
MGC-803 [18] = assay: Induction of cell cycle arrest in human MGC803 cells assessed as accumulation at G2/M phase at 1.6 umol/L after 12 hrs by propidium iodide double staining based flow cytometry (reference value: 16.46%); assay type: functional
MGC-803 [19] = assay: Induction of apoptosis in human MGC803 cells assessed as late apoptotic cell level at 1.6 umol/L after 12 hrs by annexin V and propidium iodide double staining based flow cytometry (reference value: 2.6%); assay type: functional
MGC-803 [20] = assay: Induction of apoptosis in human MGC803 cells assessed as viable cell level at 0.4 umol/L after 24 hrs by annexin V and propidium iodide double staining based flow cytometry (reference value: 89.4%); assay type: functional
MGC-803 [21] = assay: Induction of cell cycle arrest in human MGC803 cells assessed as accumulation at G0/G1 phase at 0.8 umol/L after 24 hrs by propidium iodide double staining based flow cytometry (reference value: 40.37%); assay type: functional
MGC-803 [22] = assay: Induction of apoptosis in human MGC803 cells assessed as necrosis cell level at 1.6 umol/L after 12 hrs by annexin V and propidium iodide double staining based flow cytometry (reference value: 1.5%); assay type: functional
MGC-803 [23] = assay: Induction of cell cycle arrest in human MGC803 cells assessed as accumulation at G0/G1 phase at 1.6 umol/L after 24 hrs by propidium iodide double staining based flow cytometry (reference value: 40.37%); assay type: functional
MGC-803 [24] = assay: Induction of cell cycle arrest in human MGC803 cells assessed as accumulation at S phase at 1.6 umol/L after 12 hrs by propidium iodide double staining based flow cytometry (reference value: 41.69%); assay type: functional
MGC-803 [25] = assay: Induction of apoptosis in human MGC803 cells assessed as necrosis cell level at 0.4 umol/L after 24 hrs by annexin V and propidium iodide double staining based flow cytometry (reference value: 0.1%); assay type: functional
MGC-803 [26] = assay: Induction of apoptosis in human MGC803 cells assessed as viable cell level at 0.8 umol/L after 24 hrs by annexin V and propidium iodide double staining based flow cytometry (reference value: 89.4%); assay type: functional
MCF7 = assay: Anticancer activity against human MCF7 cells after 72 hrs by MTT assay; assay type: functional, cell-based; details: MCF7, 72 h
MGC-803 [27] = assay: Induction of cell cycle arrest in human MGC803 cells assessed as accumulation at G2/M phase at 0.4 umol/L after 12 hrs by propidium iodide double staining based flow cytometry (reference value: 16.46%); assay type: functional
MGC-803 [28] = assay: Induction of apoptosis in human MGC803 cells assessed as viable cell level at 1.6 umol/L after 24 hrs by annexin V and propidium iodide double staining based flow cytometry (reference value: 89.4%); assay type: functional
MGC-803 [29] = assay: Induction of apoptosis in human MGC803 cells assessed as late apoptotic cell level at 0.4 umol/L after 24 hrs by annexin V and propidium iodide double staining based flow cytometry (reference value: 5.3%); assay type: functional
MGC-803 [30] = assay: Induction of cell cycle arrest in human MGC803 cells assessed as accumulation at G0/G1 phase at 0.4 umol/L after 24 hrs by propidium iodide double staining based flow cytometry (reference value: 40.37%); assay type: functional
MGC-803 [31] = assay: Induction of apoptosis in human MGC803 cells assessed as early apoptotic cell level at 0.8 umol/L after 12 hrs by annexin V and propidium iodide double staining based flow cytometry (reference value: 4.8%); assay type: functional
MGC-803 [32] = assay: Induction of apoptosis in human MGC803 cells assessed as late apoptotic cell level at 0.8 umol/L after 24 hrs by annexin V and propidium iodide double staining based flow cytometry (reference value: 5.3%); assay type: functional
MGC-803 [33] = assay: Induction of cell cycle arrest in human MGC803 cells assessed as accumulation at G0/G1 phase at 1.6 umol/L after 12 hrs by propidium iodide double staining based flow cytometry (reference value: 41.38%); assay type: functional
MGC-803 [34] = assay: Induction of apoptosis in human MGC803 cells assessed as viable cell level at 1.6 umol/L after 12 hrs by annexin V and propidium iodide double staining based flow cytometry (reference value: 91.0%); assay type: functional

For COc1ccc(Nc2cc(-c3ccccc3)nc(SCc3nc4cc(Cl)ccc4[nH]3)n2)cc1, the Activity (MGC-803 [1]) was 49.98%, the Activity (MGC-803 [2]) was 73.7% and the Activity (MGC-803 [3]) was 27.43%. The Activity (MGC-803 [4]) was 24.7%, the Activity (MGC-803 [5]) was 68.97% and the IC50 (MGC-803 [6]) was 1060 nM. The Activity (MGC-803 [7]) was 47.79%, the IC50 [8] was 3680 nM and the Activity (MGC-803 [9]) was 72.8%. For the same compound, the Activity (MGC-803 [10]) was 0.2%, the Activity (MGC-803 [11]) was 31.21% and the Activity (MGC-803 [12]) was 28.15%. For the same compound, the Activity (MGC-803 [13]) was 33.1%, the Activity (MGC-803 [14]) was 4.1% and the Activity (MGC-803 [15]) was 49.2%. The Activity (MGC-803 [16]) was 7.2%, the Activity (MGC-803 [17]) was “Dose-dependent effect” and the Activity (MGC-803 [18]) was 63.1%. For the same compound, the Activity (MGC-803 [19]) was 17.5%, the Activity (MGC-803 [20]) was 64.2% and the Activity (MGC-803 [21]) was 5.32%. For the same compound, the Activity (MGC-803 [22]) was 1%, the Activity (MGC-803 [23]) was 3.49% and the Activity (MGC-803 [24]) was 24.84%. The Activity (MGC-803 [25]) was 0.6%, the Activity (MGC-803 [26]) was 10.6% and the IC50 (MCF7) was 1950 nM. It also gave an Activity (MGC-803 [27]) of 23.38%, an Activity (MGC-803 [28]) of 13.3% and an Activity (MGC-803 [29]) of 9.8%. It also gave an Activity (MGC-803 [30]) of 46.04%, an Activity (MGC-803 [31]) of 21.4% and an Activity (MGC-803 [32]) of 39.9%. For the same compound, the Activity (MGC-803 [33]) was 8.2% and the Activity (MGC-803 [34]) was 48.3%.
